# Reference: patent publication US10906946B2, “Thrombin inhibitors” (priority 2015, dated 2021)
# Several values for one entry are separate records, joined by “and”; a condition that tells them apart may be missing. Equal entries are not always repeated. Entries after “also recorded” stand apart in the source; their conditions may differ. Peptide text beside a SMILES is read from it.
# Experiments:
# human α-thrombin = target: T1, human α-thrombin (Homo sapiens, UniProt P00734); assay: Thrombin amidolytic activity assay with chromogenic substrate S2238; assay type: biochemical; conditions: for Hill slope of thrombin amidolytic inhibition: 0 min pre-incubation where stated; for IC50: IC50 of inhibition of thrombin amidolytic activity, S2238 100 μM, without pre-incubation (0 min) where stated
# T1 construct: residues in the termini of the light chain; purchased Chemo-Sero-Therapeutic Research Institute (Kaketsuken, Japan), as a gift, not bought
# Method: Thrombin amidolytic activity assays for all peptides were performed in 96-wells microtiter plates in 50 mM Tris buffer (pH 7.4) containing 100 mM NaCl and 1 mg/ml bovine serum albumin. […] The rates of formation of p-nitroaniline were followed by measuring the absorbance at 405 nm for 10 min with a Tecan InfinitePro M200 microplate reader from Tecan (Männedorf, Switzerland). Dose-response curves were fitted using the GraphPad Prizm software (San Diego, Calif., USA) to calculate IC50 values and Hill coefficients. To measure the inhibitory constants, different concentrations of S2238 were used and the residual velocities were determined using the Morrison's tight binding equation. Inhibition of thrombin fibrinogenolytic activity of peptides were tested by measuring absorbance at 650 nm using a Sunrise microplate reader from Tecan (Männedorf, Switzerland) as described previously [Koh C Y, et al., J Biol Chem 282: 29101-13 (2007)]. The selectivity of avathrin was examined against 13 serine proteases (FIG. 5). Effects of avathrin on the amidolytic activities of these serine proteases were determined using respective chromogenic substrates. […] Avathrin (150 μM) was incubated with thrombin (5 μM), in 50 mM Tris buffer (pH 7.4) containing 150 mM NaCl and 1 mg/ml BSA. After different incubation times, reactions were quenched with 1% TFA (pH 1.8) and loaded onto a Jupiter Proteo column (4 μm, 90 Å, 100×1.0 mm) attached to a Dionex nano-HPLC system from Thermo Fisher Scientific (Waltham, Mass., USA) and eluted using an acetonitrile gradient with 0.05% TFA and 99.95% MilliQ water as eluent A and 0.05% TFA, 19.95% MilliQ water and 80% ACN as eluent B. Masses of all peaks were measured to identify cleavage products, which were subsequently quantified by integrating the peaks and calculating the area under the curves. To measure the effect of different pre-incubation times on the thrombin inhibitory activity, amidolytic assays were performed for various incubation times (up to 36 h).
# thrombin = target: T2, thrombin (Homo sapiens, UniProt P00734); assay: Inhibition of thrombin fibrinogenolytic activity (fibrinogen clotting time); assay type: biochemical
# T2 construct: residues in the termini of the light chain; and in the autolysis loop and C-terminus of the heavy chain; purchased Chemo-Sero-Therapeutic Research Institute (Kaketsuken, Japan), as a gift, not bought
# Method: Thrombin amidolytic activity assays for all peptides were performed in 96-wells microtiter plates in 50 mM Tris buffer (pH 7.4) containing 100 mM NaCl and 1 mg/ml bovine serum albumin. Typically, 100 μl of peptide and 100 μl of thrombin were pre-incubated for different durations before 100 μl of S2238 was added to the reaction wells. The rates of formation of p-nitroaniline were followed by measuring the absorbance at 405 nm for 10 min with a Tecan InfinitePro M200 microplate reader from Tecan (Männedorf, Switzerland). Dose-response curves were fitted using the GraphPad Prizm software (San Diego, Calif., USA) to calculate IC50 values and Hill coefficients. To measure the inhibitory constants, different concentrations of S2238 were used and the residual velocities were determined using the Morrison's tight binding equation. Inhibition of thrombin fibrinogenolytic activity of peptides were tested by measuring absorbance at 650 nm using a Sunrise microplate reader from Tecan (Männedorf, Switzerland) as described previously [Koh C Y, et al., J Biol Chem 282: 29101-13 (2007)]. The selectivity of avathrin was examined against 13 serine proteases (FIG. 5). Effects of avathrin on the amidolytic activities of these serine proteases were determined using respective chromogenic substrates. Cleavage of avathrin by thrombin. Avathrin (150 μM) was incubated with thrombin (5 μM), in 50 mM Tris buffer (pH 7.4) containing 150 mM NaCl and 1 mg/ml BSA. After different incubation times, reactions were quenched with 1% TFA (pH 1.8) and loaded onto a Jupiter Proteo column (4 μm, 90 Å, 100×1.0 mm) attached to a Dionex nano-HPLC system from Thermo Fisher Scientific (Waltham, Mass., USA) and eluted using an acetonitrile gradient with 0.05% TFA and 99.95% MilliQ water as eluent A and 0.05% TFA, 19.95% MilliQ water and 80% ACN as eluent B. Masses of all peaks were measured to identify cleavage products, which were subsequently quantified by integrating the peaks and calculating the area under the curves. To measure the effect of different pre-incubation times on the thrombin inhibitory activity, amidolytic assays were performed for various incubation times (up to 36 h).
# [1] = test system: FeCl3-induced carotid artery thrombosis; assay: Ferric chloride-induced carotid artery thrombosis model; assay type: in vivo, C57BL/6 male mice; conditions: mice, 10% FeCl3
# Method: All animal experiments were carried out under protocol 041/12 approved by Institutional Animal Care and Use Committee, National University of Singapore. The ferric chloride induced carotid artery thrombosis model was performed as described previously [Eckly A, et al., J Thromb Haemost 9: 779-89 (2011)] with minor modifications. Typically, C57BL/6 male mice (9-11 weeks old, 24.5-27.5 g) were anesthetized with an intraperitoneal injection of ketamine (75 mg/kg) and medetomidine (1 mg/kg). 100 μL of different doses of avathrin were injected into the mice via tail vein. The right carotid artery was dissected using blunt dissection and a vascular injury was caused applying filter paper of 2 mm×2 mm saturated with FeCl3 on top of the carotid artery. After 3 min, the filter paper was removed and the vessel was washed with sterile normal saline. To determine the time to occlusion, a miniature Doppler flow probe (Transonic Systems Inc., Ithaca, N.Y., USA) was placed around the carotid artery and blood flow was recorded using a Transonic® flow meter from ADInstruments (Dunedin, New Zealand). The maximal time for monitoring the blood flow after injury was 30 min. Mice were euthanized by cervical dislocation immediately after the completion of the experiment and prior to recovery from anesthesia.
Molecule,Hill slope of thrombin amidolytic inhibition (human α-thrombin),"Hill slope of thrombin amidolytic inhibition, 10 min pre-incubation (human α-thrombin)",IC50 (human α-thrombin; thrombin 0.81 nM) [nM],"Ki (human α-thrombin; Ki(nM), Table 2) [nM]",Hill Slope (human α-thrombin; Table 2),effect on fibrinogen clotting time / thrombin fibrinogenolytic activity (thrombin),"Ki (human α-thrombin; inhibitory constant Ki for thrombin, thrombin 0.81 nM, various S2238 concentrations) [nM]",effect on thrombin amidolytic activity (human α-thrombin; 3-300 μM),IC50(nM) (human α-thrombin; Table 2),Ki(nM) (human α-thrombin; Table 2),"activation of thrombin amidolytic activity (human α-thrombin; high concentrations, up to 300 μM)",time to occlusion (TTO) ([1]; 3 mg/kg intravenously),time to occlusion (TTO) ([1]; 10 mg/kg intravenously)
CC[C@H](C)[C@H](N)C(=O)N[C@@H](CO)C(=O)N[C@@H](CCCCN)C(=O)N[C@@H](CCC(N)=O)C(=O)NCC(=O)N[C@@H](CC(C)C)C(=O)NCC(=O)NCC(=O)N[C@@H](CC(=O)O)C(=O)N[C@@H](Cc1ccccc1)C(=O)N[C@@H](CCC(=O)O)C(=O)N[C@@H](CCC(=O)O)C(=O)N[C@H](C(=O)N1CCC[C@H]1C(=O)N[C@@H](CO)C(=O)N[C@@H](CC(=O)O)C(=O)N[C@@H](CCC(=O)O)C(=O)N[C@H](C(=O)N[C@H](C(=O)N[C@@H](CCC(=O)O)C(=O)O)[C@@H](C)CC)[C@@H](C)CC)[C@@H](C)CC [IS20] (H-ISKQGLGGDFEEIPSDEIIE-OH; N-terminus and C-terminus assumed),0.86±0.02,0.87±0.01,12.4 ± 0.32,5.76 ± 0.23,0.86 ± 0.02,inhibited the fibrinogenolytic activity of thrombin in a dose-dependent manner; also recorded: prolonged fibrinogen clotting times in a dose dependent manner,–,–,–,–,–,–,–
CC[C@H](C)[C@H](NC(=O)[C@H](CCCCN)NC(=O)[C@@H]1CCCN1C(=O)[C@@H](NC(=O)[C@H](C)NC(=O)[C@@H](NC(=O)[C@@H](N)CCC(N)=O)[C@@H](C)O)C(C)C)C(=O)N[C@@H](CO)C(=O)N[C@@H](CCCCN)C(=O)N[C@@H](CCC(N)=O)C(=O)NCC(=O)N[C@@H](CC(C)C)C(=O)NCC(=O)NCC(=O)N[C@@H](CC(=O)O)C(=O)N[C@@H](Cc1ccccc1)C(=O)N[C@@H](CCC(=O)O)C(=O)N[C@@H](CCC(=O)O)C(=O)N[C@H](C(=O)N1CCC[C@H]1C(=O)N[C@@H](CO)C(=O)N[C@@H](CC(=O)O)C(=O)N[C@@H](CCC(=O)O)C(=O)N[C@H](C(=O)N[C@H](C(=O)N[C@@H](CCC(=O)O)C(=O)O)[C@@H](C)CC)[C@@H](C)CC)[C@@H](C)CC [QT26] (H-QTAVPKISKQGLGGDFEEIPSDEIIE-OH; N-terminus and C-terminus assumed),0.88±0.03,0.92±0.03,8.94 ± 0.64,–,0.88 ± 0.03,inhibited,0.7603 ± 0.00091,–,–,–,–,–,–
GLGGDFEEIPSDEIIE [GL16],–,–,–,–,N. I.,inhibited the fibrinogenolytic activity; also recorded: prolonged fibrinogen clotting times in a dose dependent manner,–,did not inhibit amidolytic activity even at 300 μM; also recorded: unable to inhibit thrombin amidolytic activity,N. I.*,N. I.,5-10%,–,–
hirulog-1: peptidyl bivalent thrombin inhibitor used as comparator drug,–,–,–,–,–,–,–,–,–,–,–,9.70 ± 3.15 min and 9.76 ± 3.15 min,15.22 ± 3.39 min and 15.23 ± 3.39 min
